From US20250092080A1, “FLEX-NUCLEOSIDE ANALOGUES, NOVEL THERAPEUTICS AGAINST VIRUSES” (priority 2022, published 2025)
“And” between values parts separate entries of the source, which are not always exact repeats. Equal entries are not always repeated. Where two headings read alike, the source gives them in different places.

Assays:
Rift Valley Fever Virus = assay: microbe, parasite or virus in culture; type: cell-based
Ebola Virus [1] = assay: microbe, parasite or virus in culture; type: cell-based, strain Zaire
[2] = Cell viability in A549 (parallel to Rubella screening); type: cell-based; conditions: human, A549 cells, RA-0001522
in vitro [3] = assay: in vitro
Rubella Virus = Rubella Virus antiviral screening, A549; type: cell-based
Huh7 cells = conditions: human
Dengue Virus 4 = assay: DENV4 antiviral activity (Tables 11-15); type: cell-based
Dengue Virus 2 [4] = assay: DENV2 antiviral activity (Tables 11-15); type: cell-based; conditions: for IC50: DENV2
in vitro [5] = conditions: human
Ebola Virus [6] = assay: microbe, parasite or virus in culture; type: cell-based; conditions: Zaire ebolavirus, Huh-7
[7] = Cytotoxicity printed in the DENV4 lines (Tables 11-15); type: cell-based; conditions: cells not given
[8] = Cytotoxicity, A549 cells, lab #1; conditions: human
SARS-CoV-2 = SARS-CoV-2 (A549) #2 antiviral activity; type: cell-based; conditions: Severe acute respiratory syndrome coronavirus 2, lab #2
in vitro [9] = conditions: human; remark: listed apart in the source
SARS-CoV-2 (Omicron) = SARS-CoV-2 (Omicron) (Calu3) #1 antiviral activity; type: cell-based; conditions: Severe acute respiratory syndrome coronavirus 2; Omicron strain in Calu-3 cells; lab #1
SARS-CoV-2 (WA-1) = assay: SARS-CoV-2 (WA)(A549) #1 antiviral activity; type: cell-based; conditions: Severe acute respiratory syndrome coronavirus 2; WA-1 strain in A549 cells; lab #1
Chikungunya Virus = assay: CHIKV antiviral activity (Tables 11-15); type: cell-based
[10] = system: Venezuelan Equine Encephalitis Virus; assay: microbe, parasite or virus in culture; type: cell-based
in vitro [11] = assay: in vitro; remark: listed apart in the source
[12] = Cytotoxicity printed in the CHIKV line (Table 11)
[13] = Cytotoxicity, A549, lab #2; conditions: human, A549 cells
Epstein-Barr virus = assay: microbe, parasite or virus in culture; type: cell-based, strain Akata; conditions: human gammaherpesvirus 4, Akata
in vitro [14] = conditions: human; remark: listed apart in the source
Dengue Virus 2 [15] = assay: microbe, parasite or virus in culture; type: cell-based, strain New Guinea C; conditions: Huh-7
Enterovirus-71 = assay: organism not typed; type: cell-based
MERS Coronavirus = type: cell-based, strain EMC
SARS-CoV-2 (WA) = assay: SARS-CoV-2 (WA)(Calu3) antiviral activity; type: cell-based, WA strain; conditions: Severe acute respiratory syndrome coronavirus 2, Calu-3
[16] = Cytotoxicity, Calu3 (WA test); type: cell-based; conditions: human, Calu3 cells; Calu3 (WA lines)

CNc1nc(N)ncc1-c1cn([C@@H]2O[C@H](COP(=O)(NC(C)C(=O)OC(C)C)Oc3ccccc3)C(O)C2(C)F)cn1 (stereo in doubt) [CDW3-002, propan-2-yl-(2S)-2-(((((2R,3R,4R,5R)-5-(4-(2-amino-4-(methylamino)pyrimidin-5-yl)-1H-imidazol-1-yl)-4-fluoro-3-hydroxy-4-methyloxolan-2-yl)methyl)(phenyl)phosphono)amino) propanoate]
IC50 (Rift Valley Fever Virus): 74.9 µM
IC90 (Rift Valley Fever Virus): > 100 µM
EC50 (Ebola Virus [1]; Zaire ebolavirus, Vero, read-out: EC50): 30 µM
CC50 [2]: 97.2 µM
CC50 (in vitro [3]): > 100 µM
IC50 (Rubella Virus): 69.9 µM
IC90 (Rubella Virus): > 100 µM

COc1ncc(-c2cn([C@@H]3O[C@H](CO[P@@](=O)(N[C@@H](C)C(=O)OC(C)C)Oc4ccccc4)[C@H](O)C3(C)F)cn2)c(OC)n1 (stereo partly shown) [CDW3-007]
CC50 (Huh7 cells): > 200 µM
IC50 (Dengue Virus 4; DENV4): > 50 µM
IC50 (Dengue Virus 2 [4]): 45 µM
CC50 (in vitro [5]): 274 µM

CC(C)OC(=O)[C@H](C)N[P@](=O)(OC[C@H]1O[C@@H](n2cnc(-c3cnc(N)nc3)c2)C(C)(F)[C@H]1O)Oc1ccccc1 (stereo partly shown) [CDW3-014]
IC50 (Ebola Virus [6]): 10.5 µM
inhibition at 50 µM (Dengue Virus 4; DENV4, read-out: % inhib): 27%
inhibition at 50 µM (Dengue Virus 2 [4]; DENV2, read-out: % inhib): 13.6%
CC50 (in vitro [5]): 33.4 µM

COc1ncc(-c2cn([C@@H]3O[C@H](CO[P@@](=O)(N[C@@H](C)C(=O)OC(C)C)Oc4ccccc4)[C@H](O[P@@](=O)(N[C@@H](C)C(=O)OC(C)C)Oc4ccccc4)C3(C)F)cn2)c(OC)n1 (stereo partly shown) [CDW3-015]
CC50 [7]: > 100 µM
CC50 [8]: > 100 µM
IC50 (SARS-CoV-2): 2.95 µM
CC50 (in vitro [9]): 1.74 µM
IC50 (Ebola Virus [6]): 47 µM
IC50 (SARS-CoV-2 (Omicron)): 19.7 µM
IC50 (SARS-CoV-2 (WA-1)): 12.4 µM
IC50 (Dengue Virus 4; DENV4): 16 µM
IC90 (Dengue Virus 4; DENV4): 26 µM
CC50 (in vitro [5]): > 200 µM

CNc1cc(-c2cncn2[C@@H]2O[C@H](CO[P@@](=O)(N[C@@H](C)C(=O)OC(C)C)Oc3ccccc3)[C@H](O[P@@](=O)(N[C@@H](C)C(=O)OC(C)C)Oc3ccccc3)C2(C)F)nc(N)n1 (stereo partly shown) [CEM-034]
CC50 [8]: 4.05 µM
EC50 (Chikungunya Virus): 19.9 µM
IC50 (SARS-CoV-2): 6.47 µM
EC50 [10]: 19.7 µM
CC50 (in vitro [11]): > 100 µM
CC50 (in vitro [9]): 35.4 µM
IC50 (Ebola Virus [6]): 13.5 µM
IC50 (SARS-CoV-2 (Omicron)): 22.6 µM
IC50 (SARS-CoV-2 (WA-1)): 13.6 µM
CC50 [12]: > 100 µM
IC50 (Dengue Virus 4; DENV4): 18 µM
IC50 (Dengue Virus 2 [4]): 14 µM
CC50 (in vitro [5]): 85 µM
CC50 [13]: 15.4 µM

Cc1ccc(-c2cn([C@@H]3C[C@@H](O)[C@H](CO)O3)c(=O)[nH]c2=O)s1 [CHK-03, 1-((2S,4R,5S)-4-hydroxy-5-(hydroxymethyl)tetrahydrofuran-2-yl)-5-(5-methylthiophen-2-yl)pyrimidine-2,4(1H,3H)-dione]
EC90 (Epstein-Barr virus): 18.7 µM
EC50 (Epstein-Barr virus; read-out: EC50): 2.97 µM
CC50 (in vitro [14]): > 100 µM

Nc1nc(=O)n([C@@H]2C[C@@H](O)[C@H](CO)O2)cc1-c1ccco1 [CHK-05, 4-amino-5-(furan-2-yl)-1-((2S,4R,5S)-4-hydroxy-5-(hydroxymethyl)tetrahydrofuran-2-yl)pyrimidin-2(1H)-one]
EC50 (Epstein-Barr virus; read-out: EC50): 69.9 µM
EC50 (Dengue Virus 2 [15]): 79 µM
EC50 (Enterovirus-71): 24 µM

Nc1ccn(C[C@@H](CO)OCP(=O)(O)O)c(=O)n1 [Cidofovir, reference compound]
EC50 (Epstein-Barr virus): 3.92 µM
EC90 (Epstein-Barr virus): 71.4 µM
CC50 (in vitro [14]): > 100 µM

O=c1nc(NO)ccn1[C@@H]1O[C@H](CO)[C@@H](O)[C@H]1O [EIDD-1931]
EC50 (MERS Coronavirus): 0.036 µg/mL and 0.034 µg/mL

NC(=O)c1nc(F)c[nH]c1=O [Favipiravir, reference compound]
EC50 (Ebola Virus [1]; Zaire ebolavirus, Vero): 12 µM

COc1nc(N)ncc1-c1cn(COCCO)cn1 [JT-001]
EC90 (Epstein-Barr virus): > 100 µM
EC50 (Epstein-Barr virus; read-out: EC50): 59.9 µM
CC50 (in vitro [14]): > 100 µM

COc1ncc(-c2cn(COCCO)cn2)c(OC)n1 [JT-004]
EC90 (Epstein-Barr virus): > 100 µM
EC50 (Epstein-Barr virus; read-out: EC50): 86.8 µM
CC50 (in vitro [14]): > 100 µM

CCC(CC)COC(=O)[C@H](C)NP(=O)(OCCOCn1cnc(-c2cnc(OC)nc2OC)c1)Oc1ccccc1 (stereo partly shown) [JT-005]
EC50 (Ebola Virus [1]; read-out: EC50): 12 µM
CC50 (Vero): > 100 µM

COc1ncc(-c2cn(COCCOC(C)=O)cn2)c(OC)n1 [JT-006]
EC90 (Epstein-Barr virus): > 100 µM
EC50 (Epstein-Barr virus; read-out: EC50): 79.9 µM
CC50 (in vitro [14]): > 100 µM

CCC(CC)COC(=O)[C@H](C)N[P@](=O)(OCCOCn1cncc1-c1cnc(OC)nc1OC)Oc1ccccc1 [JT-092]
CC50 [8]: > 100 µM
IC50 (SARS-CoV-2 (WA-1)): 29.7 µM
IC90 (SARS-CoV-2 (WA-1)): 273 µM
IC50 (SARS-CoV-2 (WA)): 82.8 µM
IC90 (SARS-CoV-2 (WA)): 172 µM
CC50 [16]: > 100 µM

CCC(=O)OCCOCn1cnc(-c2cnc(OC)nc2)c1 [JT-093]
IC50 (Dengue Virus 4; DENV4): > 50 µM
IC50 (Dengue Virus 2 [4]): 21 µM

CCC(CC)COC(=O)[C@H](C)N[P@](=O)(OCCOCn1cncc1-c1cnc(N)nc1OC)Oc1ccccc1 [JT-096]
CC50 [8]: 73.3 µM
IC50 (Ebola Virus [6]): 52 µM
IC50 (SARS-CoV-2 (WA-1)): 10.5 µM
IC90 (SARS-CoV-2 (WA-1)): 46.3 µM
IC50 (SARS-CoV-2 (WA)): 31.4 µM
IC90 (SARS-CoV-2 (WA)): 106 µM
CC50 [16]: > 100 µM
IC50 (Dengue Virus 4; DENV4): > 42 µM
IC50 (Dengue Virus 2 [4]): > 28 µM
CC50 (in vitro [5]): 28 µM
